The values that follow come from patent publication US20240391936A1, “TETRAHYDROTHIENO PYRIDINE DERIVATIVES AS DDRS INHIBITORS” (CHIESI FARMACEUTICI S.P.A., priority 2021, published 2024).

Assay [1] concerns the target T1, DDR1 (Homo sapiens, UniProt Q08345). Kind of assay: DDR1 binding assay (LanthaScreen Europium Kinase Binding assay). Set-up: purchased Carna Biosciences. As to conditions: binding assay, 5 nM DDR1, 20 nM Kinase Tracer 178; Ki from IC50 by Cheng-Prusoff; read-out: Ki DDR1. Put shortly: (§1)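 TR-FRET tracer-displacement format: 665/615 nm emission ratio (340 nm excitation) gave IC50 by 4-parameter fit, then Ki via Cheng-Prusoff. Each kinase at 5 nM with 2 nM Eu-anti-GST antibody and Tracer 178 (DDR1 20 nM, DDR2 10 nM), 1 h, room temperature, HEPES pH 7.5 buffer.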
For orientation: TR-FRET usually uses a lanthanide donor and a delayed reading to cut background.

For assay [2], the target named is T1, DDR1. Kind of assay: DDR1 cell based assay (PathHunter U2OS DDR1 assay). Also noted: host or cells: U2OS-DDR1 (PathHunter). As to conditions: U2OS-DDR1 cells, bovine Type II Collagen 20 μg/ml. The method in brief: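 Receptor activation measured by enzyme-fragment complementation luminescence in engineered U2OS cells. Compound added 30 min before overnight challenge with 20 μg/ml bovine collagen II; data scaled between vehicle and collagen-stimulated controls, IC50 derived by four-parameter variable-slope fitting.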

Assay [3] deals with T2, DDR2 (Homo sapiens, UniProt Q16832).
T2 sequence (Q16832 22-855): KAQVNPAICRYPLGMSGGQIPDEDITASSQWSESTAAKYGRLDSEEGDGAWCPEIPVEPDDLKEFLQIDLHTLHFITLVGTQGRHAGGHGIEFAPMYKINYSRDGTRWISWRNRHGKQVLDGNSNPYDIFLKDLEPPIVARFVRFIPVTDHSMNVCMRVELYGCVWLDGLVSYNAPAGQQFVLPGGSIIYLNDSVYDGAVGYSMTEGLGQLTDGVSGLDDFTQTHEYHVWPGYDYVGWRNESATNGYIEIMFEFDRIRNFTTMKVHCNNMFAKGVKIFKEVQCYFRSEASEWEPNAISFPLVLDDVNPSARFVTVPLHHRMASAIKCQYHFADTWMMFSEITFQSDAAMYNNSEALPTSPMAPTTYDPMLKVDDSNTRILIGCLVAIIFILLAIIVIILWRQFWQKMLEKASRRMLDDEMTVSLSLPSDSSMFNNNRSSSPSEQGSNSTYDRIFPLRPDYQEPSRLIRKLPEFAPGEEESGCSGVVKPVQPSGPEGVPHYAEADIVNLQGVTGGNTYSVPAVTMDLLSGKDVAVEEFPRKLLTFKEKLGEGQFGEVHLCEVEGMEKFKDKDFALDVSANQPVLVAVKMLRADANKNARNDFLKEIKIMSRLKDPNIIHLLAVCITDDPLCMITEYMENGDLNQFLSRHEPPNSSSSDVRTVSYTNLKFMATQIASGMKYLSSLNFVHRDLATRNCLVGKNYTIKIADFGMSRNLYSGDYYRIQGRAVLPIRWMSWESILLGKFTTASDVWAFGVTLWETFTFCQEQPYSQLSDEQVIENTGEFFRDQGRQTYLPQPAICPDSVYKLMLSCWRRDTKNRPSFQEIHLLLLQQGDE
Put plainly: DDR2 binding assay (LanthaScreen Europium Kinase Binding assay). Also noted: purchased Life Technologies. As to conditions: binding assay, 5 nM DDR2, 10 nM Kinase Tracer 178; Ki from IC50 by Cheng-Prusoff; read-out: Ki DDR2. The method in brief:
as §1

Assay [4] addresses T2, DDR2. Put plainly: DDR2 cell based assay (phospho-ELISA in HEK293T-DDR2 recombinant cells). Also noted: expressed in transfected cells; host or cells: HEK293T-DDR2 recombinant cells. As to conditions: bovine Type II Collagen 50 μg/ml. Put shortly: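 HEK293T-DDR2 cells, serum-starved 3 h, treated with compounds 30 min before 3 h stimulation with bovine type II collagen at 50 μg/ml. Lysate phospho-DDR2 measured by ELISA, normalized to maximal-inhibition and collagen II (20 μg/ml) controls; IC50 from variable-slope sigmoidal fit.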

T1 sequence (Q08345 19-913): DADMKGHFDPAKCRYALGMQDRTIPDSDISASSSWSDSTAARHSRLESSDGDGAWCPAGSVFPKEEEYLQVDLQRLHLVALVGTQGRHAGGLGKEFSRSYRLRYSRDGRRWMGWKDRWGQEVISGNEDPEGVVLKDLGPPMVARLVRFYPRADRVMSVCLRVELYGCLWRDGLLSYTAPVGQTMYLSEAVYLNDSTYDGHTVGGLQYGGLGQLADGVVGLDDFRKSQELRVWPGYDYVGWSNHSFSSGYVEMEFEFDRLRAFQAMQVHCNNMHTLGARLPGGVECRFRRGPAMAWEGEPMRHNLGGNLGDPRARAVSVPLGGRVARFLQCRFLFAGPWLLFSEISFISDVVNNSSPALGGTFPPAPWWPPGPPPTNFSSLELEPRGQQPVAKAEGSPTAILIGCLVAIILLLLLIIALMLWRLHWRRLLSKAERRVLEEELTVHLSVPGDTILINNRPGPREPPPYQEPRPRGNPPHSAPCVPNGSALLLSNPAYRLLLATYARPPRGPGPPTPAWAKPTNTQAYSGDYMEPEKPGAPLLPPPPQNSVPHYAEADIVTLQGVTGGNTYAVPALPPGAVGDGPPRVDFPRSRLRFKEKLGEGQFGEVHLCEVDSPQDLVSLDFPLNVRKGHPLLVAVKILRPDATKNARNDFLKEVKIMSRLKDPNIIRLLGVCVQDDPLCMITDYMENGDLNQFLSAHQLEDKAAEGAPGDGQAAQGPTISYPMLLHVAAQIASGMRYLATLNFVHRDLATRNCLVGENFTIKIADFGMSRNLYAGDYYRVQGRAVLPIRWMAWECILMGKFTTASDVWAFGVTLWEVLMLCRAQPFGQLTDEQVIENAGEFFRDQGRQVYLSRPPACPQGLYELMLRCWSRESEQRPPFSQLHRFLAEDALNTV

For orientation: Ki means a dissociation constant, usually derived from enzyme kinetics or from competition with a known ligand. As a reminder, the IC50 is the concentration that gives 50% inhibition. `CN(C)[C@@H]1CCN(Cc2cc(NC(=O)c3csc4c3CCN(Cc3cnc5[nH]ncc5c3)C4)cc(C(F)(F)F)c2)C1` [Example 158, (R)-6-((1H-pyrazolo[3,4-b]pyridin-5-yl)methyl)-N-(3-((3-(dimethylamino)pyrrolidin-1-yl)methyl)-5-(trifluoromethyl)phenyl)-4,5,6,7-tetrahydrothieno[2,3-c]pyridine-3-carboxamide]: the inhibitory constant (Ki) on DDR1 [1] and on DDR2 [3] was less than 25 nM in each case. Moreover, the IC50 was less than 25 nM against DDR1 [2] and 25 to 50 nM on DDR2 [4].
As for `CN1CCN(c2ccc3ncc(C(=O)N4CCc5c(C(=O)Nc6cncc(C(F)(F)F)c6)csc5C4)n3c2)CC1` [Example 165, 6-(6-(4-methylpiperazin-1-yl)imidazo[1,2-a]pyridine-3-carbonyl)-N-(5-(trifluoromethyl)pyridin-3-yl)-4,5,6,7-tetrahydrothieno[2,3-c]pyridine-3-carboxamide], the inhibitory constant (Ki) on DDR1 [1] and on DDR2 [3] was less than 25 nM throughout. Further, the IC50 on DDR1 [2] was less than 25 nM; at DDR2 [4] it was 25 to 50 nM.
Take `O=C(Nc1cncc(C(F)(F)F)c1)c1csc2c1CCN(Cc1cnc3cnccn13)C2` [Example 153, 6-(imidazo[1,2-a]pyrazin-3-ylmethyl)-N-(5-(trifluoromethyl)pyridin-3-yl)-4,5,6,7-tetrahydrothieno[2,3-c]pyridine-3-carboxamide]: the inhibition constant (Ki) on DDR1 [1] and on DDR2 [3] was less than 25 nM in each case. The IC50 at DDR1 [2] and at DDR2 [4] was less than 25 nM each time.
